One molecule from ChEMBL document CHEMBL4321852, “Structure-Based and Property-Driven Optimization of N-Aryl Imidazoles toward Potent and Selective Oral RORγt Inhibitors” (J Med Chem, 2019) can be followed below.

pIC50: −log10 of the molar value.

What is called pIC50 is the negative decadic logarithm of the IC50, by convention in mol/L.

The target in series [1] is T1, Nuclear receptor ROR-gamma (Homo sapiens, UniProt P51449).
T1 sequence (P51449 whole entry): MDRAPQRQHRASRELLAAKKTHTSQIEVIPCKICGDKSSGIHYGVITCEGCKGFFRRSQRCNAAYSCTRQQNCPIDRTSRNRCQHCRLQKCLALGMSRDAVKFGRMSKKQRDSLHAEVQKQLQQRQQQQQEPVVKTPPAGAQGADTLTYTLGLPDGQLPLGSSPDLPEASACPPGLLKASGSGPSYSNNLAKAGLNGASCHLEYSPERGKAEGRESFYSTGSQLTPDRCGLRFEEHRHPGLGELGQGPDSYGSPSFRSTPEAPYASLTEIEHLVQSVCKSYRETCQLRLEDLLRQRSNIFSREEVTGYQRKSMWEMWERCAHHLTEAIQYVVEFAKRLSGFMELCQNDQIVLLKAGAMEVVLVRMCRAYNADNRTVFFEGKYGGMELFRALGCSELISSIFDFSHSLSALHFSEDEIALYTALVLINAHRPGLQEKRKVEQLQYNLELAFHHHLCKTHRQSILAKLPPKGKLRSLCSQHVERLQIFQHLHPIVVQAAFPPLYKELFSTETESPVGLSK
Put plainly: Displacement of RIP140 cofactor peptide from human His6-tagged RORgammat LBD (264 to 518 residues) by TR-FRET assay.

The target of series [2] is T1, Nuclear receptor ROR-gamma. Put plainly: Inhibition of human full-length eGFP-tagged RORgammat expressed in human HUT78 T-cells assessed as inhibition of PMA/CD3 monoclonal antibody stimulated IL-17 secretion after 48 hrs by ELISA. In kind it is cell-based. (ELISA stands for enzyme-linked immunosorbent assay.)
Series [3] is described as follows: Inhibition of RORgammat in rat CD4+ T-cells polarized with Th17 cytokine mix assessed as inhibition of IL-17 secretion.
The nature of series [4]: Inverse agonist activity at RORgammat in rat whole blood assessed as reduction in Con A/IL-23-stimulated IL-17 secretion after 72 hrs by ELISA.
A short description of series [5]: Volume of distribution at steady state in Sprague-Dawley rat at 1 mg/kg, iv. It is filed as ADME, organism-based. To be noted: in vivo, read-out: Vdss.
Series [6] is described as follows: Dose normalized AUC in Sprague-Dawley rat at 1 mg/kg, iv. The following applies: in vivo. In kind it is ADME, organism-based.
The nature of series [7]: Dose normalized AUC in DA rat at 5 mg/kg, po. It is filed as ADME, organism-based. To be noted: in vivo.
Series [8] concerns the target T2, Nuclear receptor ROR-alpha (Homo sapiens, UniProt P35398).
T2 sequence (P35398 whole entry): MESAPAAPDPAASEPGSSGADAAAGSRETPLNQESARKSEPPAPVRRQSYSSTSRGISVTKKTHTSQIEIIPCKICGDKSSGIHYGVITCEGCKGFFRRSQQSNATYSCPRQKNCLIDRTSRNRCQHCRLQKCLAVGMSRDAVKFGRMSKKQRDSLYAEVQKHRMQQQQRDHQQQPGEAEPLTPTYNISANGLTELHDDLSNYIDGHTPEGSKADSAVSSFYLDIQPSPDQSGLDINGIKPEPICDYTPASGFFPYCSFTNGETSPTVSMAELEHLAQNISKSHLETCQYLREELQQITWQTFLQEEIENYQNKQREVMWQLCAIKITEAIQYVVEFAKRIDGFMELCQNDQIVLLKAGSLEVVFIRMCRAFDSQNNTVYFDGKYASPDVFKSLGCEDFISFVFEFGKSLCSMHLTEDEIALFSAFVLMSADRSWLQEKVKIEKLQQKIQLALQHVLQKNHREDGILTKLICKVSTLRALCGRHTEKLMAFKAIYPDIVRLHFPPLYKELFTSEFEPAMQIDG
Put plainly: Inhibition of Gal4-tagged RORalpha LBD (unknown origin) by cell based luciferase reporter gene assay. For orientation: A reporter such as luciferase makes a cellular process visible.

Series [9] addresses T3, Nuclear receptor ROR-beta (Homo sapiens, UniProt Q92753).
T3 sequence (Q92753 whole entry): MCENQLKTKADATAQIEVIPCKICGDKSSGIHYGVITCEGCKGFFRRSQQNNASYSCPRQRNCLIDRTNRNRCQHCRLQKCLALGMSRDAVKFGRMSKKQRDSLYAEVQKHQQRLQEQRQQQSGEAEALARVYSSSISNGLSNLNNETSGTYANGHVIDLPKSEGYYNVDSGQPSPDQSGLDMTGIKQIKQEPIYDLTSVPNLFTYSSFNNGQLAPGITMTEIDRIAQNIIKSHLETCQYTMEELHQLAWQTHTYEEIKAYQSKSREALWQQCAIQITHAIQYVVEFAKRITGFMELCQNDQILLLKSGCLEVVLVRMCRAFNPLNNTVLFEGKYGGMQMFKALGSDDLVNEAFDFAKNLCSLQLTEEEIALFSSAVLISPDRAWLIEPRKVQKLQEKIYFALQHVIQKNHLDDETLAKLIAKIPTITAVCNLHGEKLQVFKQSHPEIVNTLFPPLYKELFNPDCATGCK
Put plainly: Inhibition of Gal4-tagged RORbeta LBD (unknown origin) by cell based luciferase reporter gene assay.

Series [10] addresses T4, Nuclear receptor subfamily 1 group I member 2 (Homo sapiens, UniProt O75469).
T4 sequence (O75469 whole entry): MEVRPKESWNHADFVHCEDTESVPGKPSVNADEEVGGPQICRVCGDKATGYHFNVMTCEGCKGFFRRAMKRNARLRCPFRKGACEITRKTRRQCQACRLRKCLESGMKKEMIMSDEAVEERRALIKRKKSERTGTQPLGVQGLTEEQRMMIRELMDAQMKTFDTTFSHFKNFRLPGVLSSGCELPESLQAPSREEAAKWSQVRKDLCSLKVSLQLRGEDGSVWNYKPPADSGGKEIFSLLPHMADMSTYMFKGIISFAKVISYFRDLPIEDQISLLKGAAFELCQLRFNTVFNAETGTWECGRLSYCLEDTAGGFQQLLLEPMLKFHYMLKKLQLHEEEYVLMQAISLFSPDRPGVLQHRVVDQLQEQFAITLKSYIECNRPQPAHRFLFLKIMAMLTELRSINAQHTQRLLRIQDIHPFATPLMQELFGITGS
Put plainly: Inhibition of Gal4-tagged PXR LBD (unknown origin) by cell based luciferase reporter gene assay.

The target of series [11] is T1, Nuclear receptor ROR-gamma. Put plainly: Inhibition of human GAL4-DBD fused RORgammat LBD expressed in human Jurkat cells assessed as inhibition of receptor transactivation after 24 hrs by luciferase reporter gene assay. It is filed as cell-based.
The test system of the next series is Rattus norvegicus. Put plainly: Anti-inflammatory activity in mBSA/CFA-immunized Lewis rat delayed-type hypersensitivity model assessed as reduction in ear swelling at 1 to 15 mg/kg, po via gavage administered twice daily for 2 days treated prior to mBSA/CFA challenge measured after up to 50 hrs. In kind it is functional, organism-based.

For the molecule `Cc1c(C2(C(F)(F)F)CC2)nc(C2CC2)n1-c1c(Cl)ccc(N2CC3(CC(C(=O)O)C3)C2)c1Cl` (single isomer, unassigned; atropisomer), the pIC50 in series [1] is 8.30; in [2] it was 7.15; in series [3], 6.41; in series [4], 6.15; in series [8], less than 5.00; in series [9] it was less than 5.00. The pIC50 was less than 5.00 in series [10] and 6.82 in series [11]. Further, in series [5], the Vd was determined as 1 L/kg. Besides, the AUC/dose amounted to 12680 nM·h in [6] and 11391 nM·h in [7]. Also, in the series on Rattus norvegicus, the Activity entry is “Dose-dependent effect”.
